In data set [1] the test system is pPLCγ2(Y759) in JeKo-1 cells. In words: Western blot of IgM-stimulated cells. It is filed as cell-based, human. As to conditions: IgM-stimulated JeKo-1 cells, 1 hr. A general note: Immunoblotting shows a protein as a band on a membrane.
Data set [2] relates to JeKo-1 cells. As to the kind of experiment: Alamar Blue cell viability assay. As to conditions: read-out: antiproliferative IC50 JeKo-1. It counts as cell-based, human. For orientation: Alamar Blue is a resazurin reagent that responds to reducing activity.
The subject of data set [3] is JeKo-1 cells. In words: Annexin V/propidium iodide apoptosis assay. It counts as cell-based, human. To be noted: up to 5 μM, 24 h, Annexin V/PI.
The subject of data set [4] is Ibrutinib-resistant Granta cells. As to the kind of experiment: Alamar Blue cell viability assay. As to conditions: Homo sapiens, 48 h, read-out: antiproliferative IC50 Granta. It counts as cell-based.
The subject of data set [5] is Mino cells. As to the kind of experiment: Alamar Blue cell viability assay. It counts as cell-based, human. As to conditions: 48 h, read-out: antiproliferative IC50 Mino.
For data set [6] the following is noted: relapsed-refractory MCL; ref Byrd et al., 2013; Sarkozy and Ribrag, 2020; cited from earlier work.
In data set [7] the test system is Z-138 cells. As to the kind of experiment: Annexin V/propidium iodide apoptosis assay. It counts as cell-based, human. As to conditions: up to 5 μM, 24 h, Annexin V/PI.
In data set [8] the test system is JeKo-1 and Mino cells. As to the kind of experiment: apoptosis after drug washout. It counts as cell-based, human. To be noted: 5 μM, treated 4 or 8 h, analyzed 16 or 20 h post washout.
Data set [9] has as its system Mino cells. In words: Annexin V/propidium iodide apoptosis assay. It counts as cell-based, human. To be noted: up to 5 μM, 24 h, Annexin V/PI.
The subject of data set [10] is BRD4 occupancy at the cMYC promoter in JeKo-1 cells. As to the kind of experiment: BRD4 ChIP assay at the cMYC promoter. It is filed as cell-based, human. As to conditions: 1 μM, 24 h.
In data set [11] the test system is Mino BTK-C481S cells. As to the kind of experiment: cell viability assay, engineered BTK cell lines. It counts as cell-based, human. To be noted: read-out: IC50 Mino BTK-C481S; 48 h, Ibrutinib-resistant BTK-C481S.
The test system of data set [12] is JeKo-1 chronic Ibrutinib-resistant cell line. In words: Cell titer Glow viability assay. It is filed as cell-based, human. (In ATP-based viability assays light output follows the ATP content of the culture.)
The target of data set [13] is PI3Kδ (Homo sapiens, UniProt O00329). In words: in vitro kinase assay. It is filed as biochemical. As to conditions: read-out: IC50 PI3Kδ.
The test system of data set [14] is JeKo-1 BTK-WT, JeKo-1 BTK-C481S and Mino BTK-C481S cells. To be noted: up to 5 μM.
The target in data set [15] is BTK (Homo sapiens, UniProt Q06187). In words: in vitro kinase assay. As to conditions: read-out: IC50 BTK. It is filed as biochemical.
Data set [16] deals with cMYC protein in Jeko-1 and Mino cells. In words: Western blot of cMYC. It counts as cell-based, human.
The subject of data set [17] is BTK and AKT phosphorylation in Mino cells. In words: inhibitor washout assay. To be noted: 1 h treatment, 24 h post washout.
The subject of data set [18] is cMYC, BCL2 and HEXIM1 expression in JeKo-1 and Mino cells. As to the kind of experiment: qRT-PCR of BRD4 target genes. It is filed as cell-based, human. To be noted: 1 and 2.5 μM, 24 hr.
For data set [19], the system named is BRD4 BD2. As to the kind of experiment: NMR titration. It is filed as binding. To be noted: 15N-labeled protein, PBS pH 6.8.
In data set [20] the test system is BRD4 BD1. As to the kind of experiment: NMR titration. It counts as binding. As to conditions: 15N-labeled protein, PBS pH 6.8.
The target of data set [21] is BRD4 BD2 (Homo sapiens, UniProt O60885). As to the kind of experiment: Alpha Screen assay against tetra-acetylated histone H4 peptide. It is filed as binding. As to conditions: read-out: IC50 BRD4 BD2.
In data set [22] the test system is JeKo-1 BTK-WT cells. In words: cell viability assay, engineered BTK cell lines. It counts as cell-based, human.
The subject of data set [23] is JeKo-1 MCL tumors. In words: JeKo-1 MCL xenograft tumor model. It is filed as in vivo. To be noted: 60 mg/kg daily by oral gavage; SRX3262 vs Ibrutinib-treated mice.
The test system of data set [24] is JeKo-1 cells. In words: cell cycle analysis. As to conditions: JeKo-1, 1–5 μM, 24 h. It counts as cell-based, human.
The target of data set [25] is PI3Kα (Homo sapiens, UniProt P42336). In words: in vitro kinase assay. It is filed as biochemical. As to conditions: read-out: IC50 PI3Kα.
Data set [26] deals with JeKo-1 BTK-C481S cells. In words: cell viability assay, engineered BTK cell lines. It counts as cell-based, human. As to conditions: read-out: IC50 JeKo-1 BTK-C481S; 48 h, Ibrutinib-resistant BTK-C481S.
Data set [27] deals with pBTK(Y223) and pAKT(S473) in Mino cells. As to the kind of experiment: Western blot of IgM-stimulated cells. It is filed as cell-based, human. As to conditions: 1 hr.
Data set [28] has as its system Mino BTK-WT cells. In words: cell viability assay, engineered BTK cell lines. It is filed as cell-based, human. As to conditions: read-out: IC50 Mino BTK-WT; 48 h.
Data set [29] deals with BRD4 BD1 (Homo sapiens, UniProt O60885). In words: Alpha Screen assay against tetra-acetylated histone H4 peptide. It counts as binding. As to conditions: read-out: IC50 BRD4 BD1.

The structures appear in SMILES notation. Where two headings read alike, the source gives them in different places.

PI3Kδ, sequence (O00329 whole entry): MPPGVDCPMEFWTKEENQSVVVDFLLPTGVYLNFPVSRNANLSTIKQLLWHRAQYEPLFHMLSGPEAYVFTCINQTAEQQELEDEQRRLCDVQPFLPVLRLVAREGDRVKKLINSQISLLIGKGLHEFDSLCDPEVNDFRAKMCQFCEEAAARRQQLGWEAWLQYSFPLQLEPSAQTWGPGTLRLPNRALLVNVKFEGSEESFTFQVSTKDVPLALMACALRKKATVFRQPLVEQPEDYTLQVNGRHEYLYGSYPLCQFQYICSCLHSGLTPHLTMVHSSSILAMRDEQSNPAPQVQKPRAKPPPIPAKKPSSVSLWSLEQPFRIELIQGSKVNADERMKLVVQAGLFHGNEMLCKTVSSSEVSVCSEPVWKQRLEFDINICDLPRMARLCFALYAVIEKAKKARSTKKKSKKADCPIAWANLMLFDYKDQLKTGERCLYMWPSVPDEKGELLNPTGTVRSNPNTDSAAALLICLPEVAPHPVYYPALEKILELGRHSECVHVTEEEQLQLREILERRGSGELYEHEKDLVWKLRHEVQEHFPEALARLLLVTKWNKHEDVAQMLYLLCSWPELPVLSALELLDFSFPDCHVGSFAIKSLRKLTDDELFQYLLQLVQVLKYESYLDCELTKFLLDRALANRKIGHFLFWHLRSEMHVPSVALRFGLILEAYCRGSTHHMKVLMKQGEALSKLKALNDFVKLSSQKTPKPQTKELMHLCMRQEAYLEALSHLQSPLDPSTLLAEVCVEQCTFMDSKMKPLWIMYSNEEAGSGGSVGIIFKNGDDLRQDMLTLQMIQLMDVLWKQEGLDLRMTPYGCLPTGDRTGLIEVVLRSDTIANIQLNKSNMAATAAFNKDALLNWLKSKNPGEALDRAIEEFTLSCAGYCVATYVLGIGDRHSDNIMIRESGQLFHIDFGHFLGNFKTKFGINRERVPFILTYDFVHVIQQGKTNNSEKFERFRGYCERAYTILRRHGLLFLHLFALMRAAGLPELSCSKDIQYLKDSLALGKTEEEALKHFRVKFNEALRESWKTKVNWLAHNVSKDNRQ
PI3Kδ, sequence (P27986 whole entry partner): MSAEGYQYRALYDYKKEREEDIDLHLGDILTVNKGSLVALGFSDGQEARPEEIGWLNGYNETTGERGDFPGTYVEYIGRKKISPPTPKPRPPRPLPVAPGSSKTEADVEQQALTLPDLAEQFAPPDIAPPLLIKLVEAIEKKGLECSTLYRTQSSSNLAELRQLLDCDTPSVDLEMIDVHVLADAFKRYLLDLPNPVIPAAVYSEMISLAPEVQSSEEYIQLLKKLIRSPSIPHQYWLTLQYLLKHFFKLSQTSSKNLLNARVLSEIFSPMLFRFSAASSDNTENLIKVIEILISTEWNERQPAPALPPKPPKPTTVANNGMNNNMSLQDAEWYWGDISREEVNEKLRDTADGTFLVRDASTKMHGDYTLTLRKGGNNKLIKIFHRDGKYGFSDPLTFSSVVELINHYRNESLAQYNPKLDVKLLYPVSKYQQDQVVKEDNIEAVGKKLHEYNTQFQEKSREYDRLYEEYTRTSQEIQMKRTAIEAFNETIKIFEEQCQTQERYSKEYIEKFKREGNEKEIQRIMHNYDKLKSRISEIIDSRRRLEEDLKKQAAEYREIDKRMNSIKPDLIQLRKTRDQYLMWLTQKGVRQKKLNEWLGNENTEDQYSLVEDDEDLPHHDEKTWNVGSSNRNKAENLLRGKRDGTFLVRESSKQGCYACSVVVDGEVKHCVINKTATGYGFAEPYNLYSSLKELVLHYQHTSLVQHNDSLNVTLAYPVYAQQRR
BTK, sequence (Q06187 whole entry): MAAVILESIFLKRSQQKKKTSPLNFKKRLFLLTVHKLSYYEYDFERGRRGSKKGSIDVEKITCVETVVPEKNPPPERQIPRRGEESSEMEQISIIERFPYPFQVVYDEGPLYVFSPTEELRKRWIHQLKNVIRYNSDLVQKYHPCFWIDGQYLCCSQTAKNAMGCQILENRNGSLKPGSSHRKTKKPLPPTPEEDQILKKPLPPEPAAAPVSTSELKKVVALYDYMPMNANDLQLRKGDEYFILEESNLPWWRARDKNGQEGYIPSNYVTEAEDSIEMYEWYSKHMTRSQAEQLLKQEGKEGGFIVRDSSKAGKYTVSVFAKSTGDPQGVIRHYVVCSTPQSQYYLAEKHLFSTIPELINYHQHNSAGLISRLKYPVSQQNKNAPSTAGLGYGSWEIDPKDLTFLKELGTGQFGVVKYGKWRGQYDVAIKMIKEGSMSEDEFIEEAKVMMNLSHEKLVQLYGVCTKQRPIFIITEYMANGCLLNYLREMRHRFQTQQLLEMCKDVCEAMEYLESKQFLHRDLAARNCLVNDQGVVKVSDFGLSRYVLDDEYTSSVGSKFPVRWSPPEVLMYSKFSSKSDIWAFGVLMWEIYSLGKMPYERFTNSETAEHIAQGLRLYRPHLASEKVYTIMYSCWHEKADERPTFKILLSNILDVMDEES
PI3Kα, sequence (P42336 whole entry): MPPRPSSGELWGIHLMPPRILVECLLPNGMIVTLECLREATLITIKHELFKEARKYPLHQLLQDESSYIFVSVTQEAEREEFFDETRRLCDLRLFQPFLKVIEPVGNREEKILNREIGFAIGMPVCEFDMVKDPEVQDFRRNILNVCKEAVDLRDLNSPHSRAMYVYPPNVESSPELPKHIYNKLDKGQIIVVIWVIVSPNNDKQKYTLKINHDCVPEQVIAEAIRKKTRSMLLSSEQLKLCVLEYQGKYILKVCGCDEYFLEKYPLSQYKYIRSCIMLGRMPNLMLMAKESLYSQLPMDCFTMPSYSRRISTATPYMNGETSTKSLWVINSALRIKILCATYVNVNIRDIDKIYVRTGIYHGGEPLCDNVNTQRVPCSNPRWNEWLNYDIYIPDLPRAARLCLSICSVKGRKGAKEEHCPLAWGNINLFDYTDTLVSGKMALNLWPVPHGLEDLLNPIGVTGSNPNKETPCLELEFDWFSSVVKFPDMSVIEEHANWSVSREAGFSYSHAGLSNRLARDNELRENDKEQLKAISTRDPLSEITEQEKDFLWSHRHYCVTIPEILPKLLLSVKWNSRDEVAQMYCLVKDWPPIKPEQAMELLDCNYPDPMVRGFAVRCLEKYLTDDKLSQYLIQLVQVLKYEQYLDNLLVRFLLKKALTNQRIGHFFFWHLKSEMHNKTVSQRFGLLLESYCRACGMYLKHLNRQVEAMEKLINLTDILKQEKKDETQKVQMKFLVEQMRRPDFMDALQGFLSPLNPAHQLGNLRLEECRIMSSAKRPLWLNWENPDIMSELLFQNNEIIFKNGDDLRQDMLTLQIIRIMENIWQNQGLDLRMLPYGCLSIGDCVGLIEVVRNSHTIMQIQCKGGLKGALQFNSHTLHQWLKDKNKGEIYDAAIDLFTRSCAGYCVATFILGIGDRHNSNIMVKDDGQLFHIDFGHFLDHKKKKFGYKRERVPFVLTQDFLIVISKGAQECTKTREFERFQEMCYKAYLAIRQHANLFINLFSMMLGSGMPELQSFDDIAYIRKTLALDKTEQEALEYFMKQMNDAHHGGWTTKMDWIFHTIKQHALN
PI3Kα, sequence (P27986 whole entry partner): as the sequence (P27986 whole entry partner) above

Regarding `C=CC(=O)N1CCC[C@@H](n2nc(-c3ccc(Oc4ccccc4)cc3)c3c(N)ncnc32)C1` [Ibrutinib, reference compound], in data set [1], the “phosphorylation of PLCγ2” value is “inhibited phosphorylation of PLCγ2”. The IC50 (in general, the concentration that gives 50% inhibition) in [2] (Homo sapiens, JeKo-1, 48 h) was found to be 8 µM; in [4] it was 20 µM; in data set [5] (Homo sapiens, MINO), 6.5 µM. The “apoptosis JeKo-1” value in data set [3] is given as “no effect”. Also, the complete response in [6] is 23%. Besides, the objective response rate in data set [6] was 68%. The “apoptosis Z-138” value in [7] is given as “mild effect”. Also, the “cells undergoing apoptosis after drug washout” value in data set [8] is given as 20–30%. Also, the “apoptosis Mino” value in data set [9] is “mild effect”.
On to `Cc1sc2c(c1C)C(c1ccc(Cl)cc1)=N[C@@H](CC(=O)OC(C)(C)C)c1nnc(C)n1-2` [JQ1, reference compound], for which the “BRD4 localization at the cMYC promoter site” value in data set [10] is “decreased”.
As to `C=CC(=O)N1CCOc2ccc(-c3csc4c(=O)cc(N5CCOCC5)oc34)cc21` [SRX3262], the IC50 in [11] is 380 nM; in [2] (Alamar Blue, 48 h), 0.62 µM; in data set [13], 16 nM; in [15], 35 nM; in data set [21], 348 nM; in [22] (read-out: IC50 JeKo-1 BTK-WT, 48 h), 550 nM. Also, the IC50 in data set [5] (Alamar Blue) was found to be 0.13 µM; in [25], 64 nM; in [26] it was 730 nM; in data set [28], 690 nM; in data set [29] it was 228 nM. Further, the “phosphorylation of PLCγ2” value in [1] is reported as “inhibited phosphorylation of PLCγ2”. The “decrease in cell viability compared to Ibrutinib” value in [12] is recorded as 3–6 times. Also, the “apoptosis in BTK-WT and Ibrutinib-resistant BTK-C481S cells” value in data set [14] is listed as “increase in apoptotic cell death”. For the same compound, the cMYC protein level result in data set [16] is given as “decreased the cMYC protein level”. In addition, in data set [17], the “AKT phosphorylation after inhibitor washout” value is “sustained inhibition of AKT phosphorylation”. Further, the “expression of HEXIM1” value in data set [18] is reported as “increase of expression of HEXIM1”. Besides, the “expression of cMYC and BCL2” value in data set [18] is “decrease of expression”. Further, the “apoptosis JeKo-1” value in [3] is recorded as “dramatically increased apoptosis”. In addition, in data set [19], the “binding to BRD4 BD2 (chemical shift perturbations)” value was “binds to both BD1 and BD2”. In addition, the “binding to BRD4 BD1 (chemical shift perturbations)” value in data set [20] was “binds to both BD1 and BD2”. Further, the “times more effective than Ibrutinib” value in data set [22] (both JeKo-1 BTK-WT and JeKo-1 BTK-C481S cells) was 20–27 times. Also, in data set [23], the body weight entry is “did not observe any notable changes in body weight”. Moreover, the cell cycle arrest result in [24] was “induced G2 phase cell cycle arrest”. Further, in data set [10], the “BRD4 localization at the cMYC promoter site” value is listed as “decreased”. Besides, the “apoptosis Z-138” value in [7] is reported as “dramatically increased apoptosis”. Further, in data set [8], the “cells undergoing apoptosis after drug washout” value is reported as 40–70%. For the same compound, the “phosphorylation of S473 in AKT” value in data set [27] is recorded as “inhibited phosphorylation”. Further, the “phosphorylation of Y223 in BTK” value in data set [27] is listed as “inhibited phosphorylation”. Moreover, the “apoptosis Mino” value in data set [9] is “dramatically increased apoptosis”.

The values are drawn from PMC8445847 (iScience, 2021).
